Source: patent US20200216441A1, “PESTICIDALLY ACTIVE HETEROCYCLIC DERIVATIVES WITH SULFUR CONTAINING SUBSTITUENTS” (SYNGENTA PARTICIPATIONS AG, priority 2017, published 2020)

Legend:
[1] = system: Plutella xylostella (Diamond Back Moth); experiment: whole plant or invertebrate; assay type: in vivo; conditions: 120 h, application rate of 200 ppm, L2 larvae on treated artificial diet, 5 days after infestation, read-out: effect in at least one of the two categories (mortality or growth inhibition)
[2] = system: Myzus persicae (Green Peach Aphid); experiment: whole plant or invertebrate; conditions: foliar, 144 h
[3] = system: Bemisia tabaci (Cotton White Fly); conditions: in Gossypium hirsutum, foliar, 144 h
[4] = system: Euschistus heros (Neotropical Brown Stink Bug); experiment: whole plant or invertebrate; assay type: in vivo; conditions: 120 h, application rate of 200 ppm, N2 nymphs on sprayed soybean leaves, 5 days after infestation, read-out: effect in at least one of the two categories (mortality or growth inhibition)
[5] = system: Myzus persicae (Green Peach Aphid); experiment: whole plant or invertebrate; assay type: in vivo; conditions: 144 h, test rate of 24 ppm, systemic, roots of infested pea seedlings in test solution, 6 days
[6] = system: Diabrotica Balteata (Corn Root Worm); experiment: Diabrotica balteata (Corn Root Worm); conditions: in Zea mays, 96 h, read-out: effect in at least one of the two categories (mortality or growth inhibition)
[7] = system: Spodoptera littoralis (Egyptian Cotton Leaf Worm); experiment: whole plant or invertebrate; conditions: in Gossypium barbadense, foliar, 72 h, read-out: control (mortality, anti-feeding effect, growth inhibition)
[8] = system: Tetranychus urticae (Two-Spotted Spider Mite); conditions: foliar, 192 h

CCS(=O)(=O)c1cc(OC(C)C)cnc1-c1nc2cc(S(=O)(=O)C(F)(F)F)ncc2n1C [Compound P72, 2-(3-ethylsulfonyl-5-isopropoxy-2-pyridyl)-3-methyl-6-(trifluoromethylsulfonyl)imidazo[4,5-c]pyridine]
≥ 80%: percent effect (mortality or growth inhibition) at 200 ppm [1] | mortality at 200 ppm [2] | mortality at 200 ppm [3] | percent effect (mortality or growth inhibition) at 200 ppm [4] | mortality at 24 ppm [5] | mortality at 200 ppm [6] | mortality at 200 ppm [7]

CCS(=O)(=O)c1cc(OC(C)C)cnc1-c1nc2cc([S+]([O-])C(F)F)ncc2n1C (stereo not shown) [Compound P87, 6-(difluoromethylsulfinyl)-2-(3-ethylsulfonyl-5-isopropoxy-2-pyridyl)-3-methyl-imidazo[4,5-c]pyridine]
≥ 80%: percent effect (mortality or growth inhibition) at 200 ppm [1] | mortality at 200 ppm [8] | mortality at 200 ppm [2] | percent effect (mortality or growth inhibition) at 200 ppm [4] | mortality at 24 ppm [5] | mortality at 200 ppm [7]

CCS(=O)(=O)c1cc(OC(C)(C)CC#N)cnc1-c1nc2cc(C(F)(F)F)ncc2n1C [Compound P47, 3-[[5-ethylsulfonyl-6-[3-methyl-6-(trifluoromethyl)imidazo[4,5-c]pyridin-2-yl]-3-pyridyl]oxy]-3-methyl-butanenitrile]
≥ 80%: percent effect (mortality or growth inhibition) at 200 ppm [1] | mortality at 200 ppm [8] | mortality at 200 ppm [2] | mortality at 200 ppm [3] | percent effect (mortality or growth inhibition) at 200 ppm [4] | mortality at 24 ppm [5] | mortality at 200 ppm [6]

CCS(=O)(=O)c1cc(OC2CC(F)(F)C2)cnc1-c1nc2cc(C(F)(F)F)ncc2n1C [Compound P42, 2-[5-(3,3-difluorocyclobutoxy)-3-ethylsulfonyl-2-pyridyl]-3-methyl-6-(trifluoromethyl)imidazo[4,5-c]pyridine]
≥ 80%: percent effect (mortality or growth inhibition) at 200 ppm [1] | mortality at 200 ppm [2] | mortality at 200 ppm [3] | percent effect (mortality or growth inhibition) at 200 ppm [4] | mortality at 24 ppm [5] | mortality at 200 ppm [6] | mortality at 200 ppm [7]

CCS(=O)(=O)c1cc(OC(C)F)cnc1-c1nc2cc(C(F)(F)F)ncc2n1C (stereo not shown) [Compound P40, 2-[3-ethylsulfonyl-5-(1-fluoroethoxy)-2-pyridyl]-3-methyl-6-(trifluoromethyl)imidazo[4,5-c]pyridine]
≥ 80%: percent effect (mortality or growth inhibition) at 200 ppm [1] | mortality at 200 ppm [2] | mortality at 200 ppm [3] | percent effect (mortality or growth inhibition) at 200 ppm [4] | mortality at 24 ppm [5] | mortality at 200 ppm [6] | mortality at 200 ppm [7]

CCS(=O)(=O)c1cc(OCCSC)ccc1-c1nc2cc(C(F)(F)F)ncc2n1C [Compound P104, 2-[2-ethylsulfonyl-4-(2-methylsulfanylethoxy)phenyl]-3-methyl-6-(trifluoromethyl)imidazo[4,5-c]pyridine]
≥ 80%: mortality at 200 ppm [8] | mortality at 200 ppm [2] | mortality at 200 ppm [3] | percent effect (mortality or growth inhibition) at 200 ppm [4] | mortality at 24 ppm [5] | mortality at 200 ppm [6]

CCS(=O)(=O)c1cc(OC(C)C)cnc1-c1nc2cc(S(=O)(=O)C(F)F)ncc2n1C [Compound P88, 6-(difluoromethylsulfonyl)-2-(3-ethylsulfonyl-5-isopropoxy-2-pyridyl)-3-methyl-imidazo[4,5-c]pyridine]
≥ 80%: percent effect (mortality or growth inhibition) at 200 ppm [1] | mortality at 200 ppm [8] | mortality at 200 ppm [2] | percent effect (mortality or growth inhibition) at 200 ppm [4] | mortality at 24 ppm [5] | mortality at 200 ppm [7]

CCS(=O)(=O)c1cc(OCC(F)(F)F)cnc1-c1nc2cc(C(F)(F)F)ncc2n1C [Compound P15, 2-[3-ethylsulfonyl-5-(2,2,2-trifluoroethoxy)-2-pyridyl]-3-methyl-6-(trifluoromethyl)imidazo[4,5-c]pyridine]
≥ 80%: percent effect (mortality or growth inhibition) at 200 ppm [1] | mortality at 200 ppm [2] | mortality at 200 ppm [3] | percent effect (mortality or growth inhibition) at 200 ppm [4] | mortality at 24 ppm [5] | mortality at 200 ppm [6] | mortality at 200 ppm [7]

CCS(=O)(=O)c1cc(OCCOC)cnc1-c1nc2cc(C(F)(F)F)ncc2n1C [Compound P8, 2-[3-ethylsulfonyl-5-(2-methoxyethoxy)-2-pyridyl]-3-methyl-6-(trifluoromethyl)imidazo[4,5-c]pyridine]
≥ 80%: percent effect (mortality or growth inhibition) at 200 ppm [1] | mortality at 200 ppm [2] | mortality at 200 ppm [3] | percent effect (mortality or growth inhibition) at 200 ppm [4] | mortality at 24 ppm [5] | mortality at 200 ppm [6] | mortality at 200 ppm [7]

CCS(=O)(=O)c1cc(OC(C)(C)CF)cnc1-c1nc2cc(C(F)(F)F)ncc2n1C [Compound P30, 2-[3-ethylsulfonyl-5-(2-fluoro-1,1-dimethyl-ethoxy)-2-pyridyl]-3-methyl-6-(trifluoromethyl)imidazo[4,5-c]pyridine]
≥ 80%: percent effect (mortality or growth inhibition) at 200 ppm [1] | mortality at 200 ppm [2] | mortality at 200 ppm [3] | percent effect (mortality or growth inhibition) at 200 ppm [4] | mortality at 24 ppm [5] | mortality at 200 ppm [6] | mortality at 200 ppm [7]

CCS(=O)(=O)c1cc(OCC(F)F)cnc1-c1nc2cc(C(F)(F)F)ncc2n1C [Compound P16, 2-[5-(2,2-difluoroethoxy)-3-ethylsulfonyl-2-pyridyl]-3-methyl-6-(trifluoromethyl)imidazo[4,5-c]pyridine]
≥ 80%: percent effect (mortality or growth inhibition) at 200 ppm [1] | mortality at 200 ppm [2] | mortality at 200 ppm [3] | percent effect (mortality or growth inhibition) at 200 ppm [4] | mortality at 24 ppm [5] | mortality at 200 ppm [6] | mortality at 200 ppm [7]

CCS(=O)(=O)c1cc(OC(CF)CF)ccc1-c1nc2cc(C(F)(F)F)ncc2n1C [Compound P100, 2-[2-ethylsulfonyl-4-[2-fluoro-1-(fluoromethyl)ethoxy]phenyl]-3-methyl-6-(trifluoromethyl)imidazo[4,5-c]pyridine]
≥ 80%: percent effect (mortality or growth inhibition) at 200 ppm [1] | mortality at 200 ppm [2] | mortality at 200 ppm [3] | percent effect (mortality or growth inhibition) at 200 ppm [4] | mortality at 24 ppm [5] | mortality at 200 ppm [6] | mortality at 200 ppm [7]

CCS(=O)(=O)c1cc(OCC2(C#N)CC2)ccc1-c1nc2cc(C(F)(F)F)ncc2n1C [Compound P101, 1-[[3-ethylsulfonyl-4-[3-methyl-6-(trifluoromethyl)imidazo[4,5-c]pyridin-2-yl]phenoxy]methyl]cyclopropanecarbonitrile]
≥ 80%: percent effect (mortality or growth inhibition) at 200 ppm [1] | mortality at 200 ppm [2] | mortality at 200 ppm [3] | percent effect (mortality or growth inhibition) at 200 ppm [4] | mortality at 24 ppm [5] | mortality at 200 ppm [6] | mortality at 200 ppm [7]

CCS(=O)(=O)c1cc(OC2CCC2)cnc1-c1nc2cc(C(F)(F)F)ncc2n1C [Compound P62, 2-[5-(cyclobutoxy)-3-ethylsulfonyl-2-pyridyl]-3-methyl-6-(trifluoromethyl)imidazo[4,5-c]pyridine]
≥ 80%: percent effect (mortality or growth inhibition) at 200 ppm [1] | mortality at 200 ppm [8] | mortality at 200 ppm [2] | mortality at 200 ppm [3] | percent effect (mortality or growth inhibition) at 200 ppm [4] | mortality at 200 ppm [6] | mortality at 200 ppm [7]

CCS(=O)(=O)c1cc(OC(C)C)cnc1-c1nc2cc(SC(F)(F)F)ncc2n1C [Compound P71, 2-(3-ethylsulfonyl-5-isopropoxy-2-pyridyl)-3-methyl-6-(trifluoromethylsulfanyl)imidazo[4,5-c]pyridine]
≥ 80%: percent effect (mortality or growth inhibition) at 200 ppm [1] | mortality at 200 ppm [8] | mortality at 200 ppm [2] | mortality at 200 ppm [3] | percent effect (mortality or growth inhibition) at 200 ppm [4] | mortality at 200 ppm [6] | mortality at 200 ppm [7]

CCS(=O)(=O)c1cc(OCC(C)C)cnc1-c1nc2cc(C(F)(F)F)ncc2n1C [Compound P75, 2-(3-ethylsulfonyl-5-isobutoxy-2-pyridyl)-3-methyl-6-(trifluoromethyl)imidazo[4,5-c]pyridine]
≥ 80%: percent effect (mortality or growth inhibition) at 200 ppm [1] | mortality at 200 ppm [2] | mortality at 200 ppm [3] | percent effect (mortality or growth inhibition) at 200 ppm [4] | mortality at 24 ppm [5] | mortality at 200 ppm [6] | mortality at 200 ppm [7]

CCS(=O)(=O)c1cc(OCCCC#N)cnc1-c1nc2cc(C(F)(F)F)ncc2n1C [Compound P70, 4-[[5-ethylsulfonyl-6-[3-methyl-6-(trifluoromethyl)imidazo[4,5-c]pyridin-2-yl]-3-pyridyl]oxy]butanenitrile]
≥ 80%: percent effect (mortality or growth inhibition) at 200 ppm [1] | mortality at 200 ppm [2] | mortality at 200 ppm [3] | percent effect (mortality or growth inhibition) at 200 ppm [4] | mortality at 24 ppm [5] | mortality at 200 ppm [7]
